Laboratory results as given in US11891352B2, “Aminomethyl-functionalized denatonium derivatives, their preparation and use” (Julius-Maximilians-Universitaet Wuerzburg, priority 2018, dated 2024).

Test: Stability of amino-functionalized denatonium derivatives (LC/MS measurements)
Type: physicochemical
Excerpt: The decomposition of the substance is illustrated as follows: […]

## CC[N+](CC)(CC(=O)Nc1c(C)cccc1C)Cc1ccc(N)cc1 [derivative (1)]
  stability: not stable
